Test results as given in patent publication US20240366607A1, “COMPOSITION FOR PREVENTION OR TREATMENT OF ATOPIC DERMATITIS COMPRISING AKT SIGNALING PATHWAY INHIBITOR AS ACTIVE INGREDIENT” (priority 2021, published 2024).

How the values were obtained:
normal skin tissue = experiment: MTT assay, cell viability in normal skin tissue; type: cell-based; conditions: for cell viability: normal skin tissue
Description: To determine the final concentration of the drug ipatasertib, normal skin tissue was seeded in a 96-well plate, and treated with ipatasertib at varying concentrations of 1 μM, 10 μM, 50 μM, 100 μM, and 200 μM. The safety and toxicity of the drug to the normal skin tissue were evaluated by measuring the absorbance at 540 nm.

[1] = test system: NC/Nga mice with induced atopic dermatitis; experiment: HDM-induced atopic dermatitis in NC/Nga mice: skin lesions and SCORAD index; type: in vivo, mouse
Description: NC/Nga mice showing clinical and histological phenotypes similar to atopic dermatitis were used. To prepare atopic dermatitis animal models, atopic skin lesions were induced by treating mice with house dust mites (HDM), a representative trigger/aggravator of atopic dermatitis (FIG. 2).
(§1) Atopic skin lesions were induced in NC/Nga mice by treatment with HDM three times a week until 4 weeks after the start of the experiment, and then each mouse was treated with ipatasertib and/or 0.1% dexamethasone (200 μL) three times a week for another four weeks (FIG. 3). Control groups consisted of a non-HDM-treated group (3 animals), a HDM-treated group (3 animals), and a HDM-and 0.1% dexamethasone-treated group (3 animals, positive control group), and experimental groups were administered ipatasertib after HDM treatment. Then, in order to check changes in skin-specific T cells in each animal, single suspensions were prepared using the spleen, skin, and lymph nodes, and T-cells were stained using anti-CD3, anti-CD4, anti-CD8, and CD45 antibodies. Flow cytometry was performed on skin-specific T cells using anti-CD69 and anti-CD103 antibodies, thereby observing the changes in number and distribution of skin-specific T cells by the application of the drug.
To evaluate the effect of ipatasertib administration in NC/Nga mice with induced atopic dermatitis, atopic dermatitis was induced by applying house dust mite (HDM) ointment to the mouse's back three times a week for 4 weeks, and then ipatasertib drug was applied to the mouse's back three times a week for another 4 weeks. […] Each score was obtained by the Wilcoxon signed-rank test, and P<0.05 was considered statistically significant. Three mice per group were tested.

serum total IgE = experiment: Serum total IgE by ELISA in atopic dermatitis mouse model; type: in vivo
Description: as §1
(§2) Blood was collected from the mouse heart, and then serum total DF-specific IgE (ng/mL) (A450) was measured in a 96-well plate (Corning Inc., Corning, NY, USA) using the ELISA MAX™ Delux Set (BioLegend, San Diego, CA, USA) kit.
The changes in serum total IgE levels in atopic dermatitis mouse models by ipatasertib treatment were measured. […]

DF-specific IgE = experiment: Serum total DF-specific IgE by ELISA in atopic dermatitis mouse model; type: in vivo; conditions: 100 μM
Description: as §1, §2
House dust mites are a common cause of allergy, and based on this fact, DF-specific IgE was measured.

[2] = test system: skin tissue of NC/Nga mice; experiment: H&E staining of skin tissue of HDM-treated NC/Nga mice (eosinophil count, epidermal thickness); type: in vivo, mouse
Description: Data are expressed as mean±standard deviation (SD). **P<0.01, *P<0.05.
as §1
Patients with allergic diseases often have a blood eosinophil count that increased by more than 5%, and based on this fact, eosinophils were counted by hematoxylin and eosin (H&E) staining. […] In addition, when atopic dermatitis occurs, the skin thickens due to an excessive inflammatory response.

[3] = test system: T cells in skin-draining lymph nodes; experiment: FACS of T cell fractions in skin-draining lymph nodes of atopic dermatitis mouse model; type: in vivo
Description: as §1

T cells in the spleen = experiment: FACS of T cell fractions in spleen of atopic dermatitis mouse model; type: in vivo
Description: as §1

[4] = test system: skin-specific T cells in the skin; experiment: FACS of skin-specific T cell fractions in skin of atopic dermatitis mouse model; type: in vivo
Description: as §1

skin-specific T cells = experiment: FACS of T cells using skin immune cells and skin lesions of atopic dermatitis patients; type: cell-based, human
Description: To verify the effect of the candidate drug on skin-specific T cells in human skin tissue, a single suspension was prepared using the skin from an atopic dermatitis patient. T cells were stained using anti-CD3, anti-CD4, anti-CD8 and anti-CD45 antibodies, and flow cytometry was performed on skin-specific T cells using anti-CD69 and anti-CD103 antibodies, thereby observing the changes in number and distribution of skin-specific T cells by the application of the drug.

[5] = test system: humanized avatar mouse model; experiment: Therapeutic effect in humanized avatar mouse model with HDM-induced atopic dermatitis; type: in vivo; conditions: applied to the back three times a week for one week after three weeks HDM
Description: (§3) PBMCs were obtained from blood samples isolated from atopic dermatitis patients, and then CD3+ T cells, which are pathogenic cells, and CD3-depleted PBMCs, which are antigen-presenting cells, were separated therefrom. Human PBMC cells obtained by this method were injected into an immunodeficient NSG mouse by two different routes of administration. That is, avatar mice were prepared by injecting CD3+ T cells, which are pathogenic cells, through intravenous injection, and CD3-depleted PBMCs through intradermal injection. After the hair on the back of the prepared avatar mouse was shaved, dead skin cells were removed using 3M film once every three days, and 100 mg of house dust mite ointment was applied to the back of the mouse for three weeks. Then, from week 4, the mouse was treated with house dust mite ointment plus ipatasertib to evaluate the therapeutic effect of ipatasertib (FIG. 14A).

[6] = test system: human T cells in the skin of the avatar mouse; experiment: Human T cell fractions in the skin of the avatar mouse; type: in vivo
Description: as §3

[7] = 100 μM, compared to 0.1% dexamethasone group

CC(C)NC[C@@H](C(=O)N1CCN(c2ncnc3c2[C@H](C)C[C@H]3O)CC1)c1ccc(Cl)cc1 [ipatasertib]
cell viability (normal skin tissue; 50 μM): ≥ 90%
cell viability (normal skin tissue; 100 μM): ≥ 90%
toxicity in normal skin tissue (normal skin tissue; up to 100 μM): no significant toxicity
recovery of skin lesions ([1]; 100 μM, applied to the back three times a week for 4 weeks): most notable recovery
scoring atopic dermatitis (SCORAD) index [1, 7]: lower SCORAD index than the 0.1% dexamethasone-administered group
therapeutic effect on atopic dermatitis skin lesions ([1]; applied to the back three times a week for 4 weeks after 4 weeks HDM): significant therapeutic effect was observed in a drug concentration-dependent manner
wounds, dryness, and shedding ([1]; compared to positive control 0.1% dexamethasone): significantly reduced compared to the positive control group administered 0.1% dexamethasone
scoring atopic dermatitis (SCORAD) index ([1]; ipatasertib-administered groups, three mice per group): significantly decreased
decrease in the total serum IgE level (serum total IgE; [7]): significantly greater
serum total IgE level (serum total IgE; ELISA, ipatasertib groups up to 100 μM): decreased in a dose-dependent manner
total DF-specific IgE level (DF-specific IgE): significantly decreased
total DF-specific IgE level (DF-specific IgE; compared to 0.1% dexamethasone group): significantly decreased even compared to that in the 0.1% dexamethasone group
eosinophil count [2]: decreased depending on the ipatasertib concentration
epidermal thickness [2]: decreased as the concentration of ipatasertib increased
fraction of T cells expressing CD69 among CD3+ CD4+ T cells [3]: tended to decrease
fraction of CD3+ CD4+ CD103+ T cells ([3]; 100 μM): statistically significantly lowest
proportion of CD3+ T cells ([3]; 100 μM): lowest proportion of CD3+ T cells
CD69+ T cells and CD103+ T cells (T cells in the spleen): decreased statistically significantly
proportion of CD3+ and CD4+ T cells (T cells in the spleen): decreased in a dose-dependent manner
proportions of CD3+, CD4+, CD69+, and CD103+ skin-specific T cells ([4]; 50 μM, skin): significantly decreased
proportions of CD3+, CD4+, CD69+, and CD103+ skin-specific T cells ([4]; 100 μM, skin): significantly decreased
CD69+ T cells and CD103+ T cells ([4]; skin tissues of the ipatasertib groups): statistically significantly decreased
proportions of skin-specific T cells ([4]; skin, compared to 0.1% dexamethasone-treated group): significantly decreased even compared to that in the 0.1% dexamethasone-treated group
proportion of skin-specific T cells (skin-specific T cells; 50 μM): significantly decreased
proportion of skin-specific T cells (skin-specific T cells; 100 μM): significantly decreased
therapeutic effect against atopic dermatitis [5]: clinically significant therapeutic effect
proportion of human CD3 T cells ([6]; 100 μM, compared to control group): significantly decreased compared to that in the control group
proportions of human CD8 and CD4 cells ([6]; drug-treated group): significantly lower
